Columns and labels:
[1] = tested on: Aβ secretion; experiment: Secreted total Aβ ELISA in conditioned media of H4βAPP695 wt cells; type: cell-based, human; settings: for inhibition at 10 µM / inhibition at 30 µM: Homo sapiens, 24 h, H4βAPP695 wt cells; for inhibition at 10 µM: read-out: Total Aβ (% decrease) 10 μM Mean; for inhibition at 30 µM: read-out: Total Aβ (% decrease) 30 μM Mean; for Aβ secretion inhibiting activity (structure activity summary): in words
Protocol: H4βAPP695 wt cells, a human […] cell line stably transfected with a wtβAPP695 expression vector construct under the control of a CMV promoter (kindly provided by Dr. Chris Eckman from Mayo Clinic, Florida) were cultured as previously described. Twenty-four hours before drug treatment, the media was replaced with serum-free media. Cells were then incubated with drugs (dissolved in DMSO) or vehicle for 24 h for collection of conditioned media and cell lysates. For the PKC inhibitors experiment, three inhibitors were treated 30 min prior to drug challenge. Primary cortical neurons were prepared from embryonic day 18 APP and presenilin 1 (APPswe, PSEN1dE9) transgenic mice on the C57BL/6 genetic background (Jackson Laboratories, strain no. 5864) as previously described. THLE-3 human hepatoma cells (from ATCC) were plated in 24-well plates that were precoated with 10 μg/mL bovine serum albumin, 10 μg/mL fibronectin, and 30 μg/mL bovine type I collagen. The cells were grown in BEGM media (Clonetics) until confluent and treated with drugs at 20 μM for 24 h. This conditioned media was harvested, diluted 1:1 in serum-free medium, and incubated with H4βAPP695 wt cells for 24 h prior to analysis of secreted Aβ, which was compared to the effect of 10 μM drug treatments without prior incubation with the THLE-3 cells. Caco-2 cells (ATCC) were plated in 12-well plates with Transwell inserts (Costar) at 70000 cells per well and grown for 21 days. The media volume of the apical and basal chambers was 0.5 and 1.5 mL, respectively. Transepithelial resistance was measured in each well and found to be >160 Ω/cm^2. Drugs at 40 μM and 20 μg/mL of lucifer yellow were added in serum-free medium to the apical chamber. Four hours later, the basal chamber media was harvested and used to measure lucifer yellow fluorescence to confirm monolayer integrity as well as for treatment of H4βAPP695 wt cells for 24 h prior to analysis of secreted Aβ, which was compared to the effect of direct addition of 10 μM of the corresponding drug.

[2] = tested on: H4βAPP695 wt cells; experiment: Cytotoxicity by total cell protein content (BCA) of H4βAPP695 wt cells; settings: cytotoxicity
Protocol: Cells were washed with cold phosphate buffered saline (PBS) and lysed on ice by vigorous mixing over 15 min with RIPA buffer containing 50 mM Tris-HCl (pH 8.0), 150 mM sodium chloride, 1% NP-40, 0.5% sodium deoxycholate, and 0.1% SDS, supplemented with 10% protease inhibitor cocktail and 2 mM PMSF. After centrifugation at 14000 g for 30 min to remove nuclei and other debris at 4° C., the protein content of the supernatants was measured using the BCA assay kit (Pierce).
The initial screen was performed in 96-well plates with drugs distributed by the hanging drop method yielding estimated drug levels of 10-25 μM. Total Aβ levels in the 24 h conditioned media were measured by a sandwich ELISA assay, and cytotoxicity was assessed by methylene blue staining of the cells in the wells, as previously described.

N#Cc1c(Cl)cccc1CSCCNC(=O)c1c(Cl)cccc1Cl [Compound 62, 2,6-Dichloro-N-[2-(3-chloro-2-cyano-benzylsulfanyl)-ethyl]-benzamide]
inhibition at 10 µM [1]: 48.7% | inhibition at 30 µM [1]: 52.3% | melting point: 166 to 168 °C | Cell protein (% decrease) 10 μM Mean [2]: 3.5% | Cell protein (% decrease) 30 μM Mean [2]: 1.3%

O=C(NCCSCc1cccc(Br)c1)c1c(Cl)cccc1Cl [Compound 51, N-[2-(3-Bromo-benzylsulfanyl)-ethyl]-2,6-dichloro-benzamide]
inhibition at 30 µM [1]: 90.1% | Aβ secretion inhibiting activity (structure activity summary) [1]: good activity | melting point: 74 to 76 °C | Cell protein (% decrease) 10 μM Mean [2]: 12.3% | Cell protein (% decrease) 30 μM Mean [2]: 38.6%

COc1cccc(OC)c1C(=O)NCCSCc1cccc(Cl)c1 [Compound 36, N-[2-(3-Chloro-benzylsulfanyl)-ethyl]-2,6-dimethoxy-benzamide]
inhibition at 10 µM [1]: -13.1% | inhibition at 30 µM [1]: 11.2% | Aβ secretion inhibiting activity (structure activity summary) [1]: not well tolerated | melting point: 90 to 91 °C | Cell protein (% decrease) 10 μM Mean [2]: 7.1% | Cell protein (% decrease) 30 μM Mean [2]: −0.6%

O=C(NCCSCc1cccc(Br)c1)c1c(Br)cccc1Br [Compound 55, 2,6-Dibromo-N-[2-(3-bromo-benzylsulfanyl)-ethyl]-benzamide]
inhibition at 30 µM [1]: 87.3% | Aβ secretion inhibiting activity (structure activity summary) [1]: maintained activity | melting point: 70 to 72 °C | Cell protein (% decrease) 10 μM Mean [2]: 9.8% | Cell protein (% decrease) 30 μM Mean [2]: 23.9%

COc1ccc(CSCCNC(=O)c2c(Cl)cccc2Cl)cc1 [Compound 26, 2,6-Dichloro-N-[2-(4-methoxy-benzylsulfanyl)-ethyl]-benzamide]
inhibition at 10 µM [1]: 1.6% | inhibition at 30 µM [1]: 1.1% | Aβ secretion inhibiting activity (structure activity summary) [1]: loss of activity | melting point: 80 to 81 °C | Cell protein (% decrease) 10 μM Mean [2]: 6.7% | Cell protein (% decrease) 30 μM Mean [2]: 12.7%

O=C(NCCS(=O)(=O)Cc1cccc(O)c1)c1c(Cl)cccc1Cl [Compound 31, 2,6-Dichloro-N-[2-(3-hydroxy-phenylmethanesulfonyl)-ethyl]-benzamide]
inhibition at 10 µM [1]: -10.1% | inhibition at 30 µM [1]: 9.6% | Aβ secretion inhibiting activity (structure activity summary) [1]: No tested substitutions in the linker region were well tolerated | melting point: 139 to 141 °C | Cell protein (% decrease) 10 μM Mean [2]: 7.7% | Cell protein (% decrease) 30 μM Mean [2]: 4.4%

O=C(NCCSCc1cccc(C(F)(F)F)c1)c1c(Cl)cccc1Cl [Compound 50, 2,6-Dichloro-N-[2-(3-trifluoromethyl-benzylsulfanyl)-ethyl]-benzamide]
inhibition at 30 µM [1]: 93.4% | Aβ secretion inhibiting activity (structure activity summary) [1]: good activity | melting point: 54 to 55 °C | Cell protein (% decrease) 10 μM Mean [2]: 19%

O=C(NCCSCc1cccc(F)c1)c1c(Cl)cccc1Cl [Compound 47, 2,6-Dichloro-N-[2-(3-fluoro-benzylsulfanyl)-ethyl]-benzamide]
inhibition at 10 µM [1]: 10.2% | inhibition at 30 µM [1]: 36.1% | Aβ secretion inhibiting activity (structure activity summary) [1]: did not yield good activity | melting point: 70 to 72 °C | Cell protein (% decrease) 10 μM Mean [2]: 2.6% | Cell protein (% decrease) 30 μM Mean [2]: 3.7%

O=C(NCCS(=O)(=O)Cc1cccc(Cl)c1)c1c(Cl)cccc1Cl [Compound 66, 2,6-Dichloro-N-[2-(3-chloro-phenylmethanesulfonyl)-ethyl]-benzamide]
inhibition at 10 µM [1]: 8.9% | inhibition at 30 µM [1]: 9.3% | Aβ secretion inhibiting activity (structure activity summary) [1]: No tested substitutions in the linker region were well tolerated | melting point: 156 to 158 °C | Cell protein (% decrease) 10 μM Mean [2]: −2.2% | Cell protein (% decrease) 30 μM Mean [2]: −3.8%
